Assay results published in ChEMBL document CHEMBL1130864, “Potent and efficacious thienylamidine-incorporated thrombin inhibitors” (Bioorg Med Chem Lett, 1998).

Assays:
Serine protease 1 = target: T1, Serine protease 1 (Bos taurus, UniProt P00760); assay: Compound was evaluated for its inhibitory activity against bovine trypsin
T1 sequence (P00760 whole entry): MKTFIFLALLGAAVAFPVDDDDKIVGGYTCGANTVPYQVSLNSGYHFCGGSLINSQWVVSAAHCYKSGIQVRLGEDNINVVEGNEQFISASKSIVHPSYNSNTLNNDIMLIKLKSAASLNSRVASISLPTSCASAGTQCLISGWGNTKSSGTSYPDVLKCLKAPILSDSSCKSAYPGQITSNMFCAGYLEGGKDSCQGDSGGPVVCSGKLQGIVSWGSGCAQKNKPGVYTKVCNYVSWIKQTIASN

Prothrombin = Prothrombin (Homo sapiens, UniProt P00734); assay: Compound was evaluated for its inhibitory activity against human thrombin

Row | SMILES | Ki (Serine protease 1) [nM] | Ki (Prothrombin) [nM]
1 | CN(C(=O)[C@H](Cc1ccc(C(=N)N)cc1)NS(=O)(=O)c1ccc2ccccc2c1)C1CCCC1 | 16200 | 6.8
2 | CCCc1ccc(S(=O)(=O)N[C@@H](Cc2ccc(C(=N)N)cc2)C(=O)N(C)C2CCCC2)cc1 | 2440 | 0.84
3 | CCCc1ccc(S(=O)(=O)N[C@@H](Cc2ccc(C(=N)N)s2)C(=O)N(C)C2CCCC2)cc1 | 150 | 0.6
4 | CN(C(=O)[C@H](Cc1ccc(C(=N)NN)s1)NS(=O)(=O)c1ccc2ccccc2c1)C1CCCC1 |  | 91
5 | CN(C(=O)[C@H](Cc1ccc(C(=N)N)s1)NS(=O)(=O)c1ccc2ccccc2c1)C1CCCC1 | 153 | 3
6 | COc1ccc2cc(S(=O)(=O)N[C@@H](Cc3ccc(C(=N)N)s3)C(=O)N(C)C3CCCC3)ccc2c1 | 134 | 0.49
